Source: ChEMBL document CHEMBL1759957, “Synthesis and antibacterial evaluation of novel 8-fluoro Norfloxacin derivatives as potential probes for methicillin and vancomycin-resistant Staphylococcus aureus” (2011)
Values after ≈ are worked out from the molar mass of the structure shown.

Assays:
Assay in all cases: microbe, parasite or virus in culture
Assay type in all cases: functional
Klebsiella pneumoniae = settings: ATCC 27736, 24 h
Description: Antibacterial activity against Klebsiella pneumoniae ATCC 27736 after 24 hrs by spectrophotometry

Staphylococcus aureus [1] = settings: ATCC 29213, 24 h
Description: Antibacterial activity against methicillin- resistant and vancomycin resistant Staphylococcus aureus ATCC 29213 after 24 hrs by spectrophotometry

Staphylococcus aureus [2] = settings: ATCC 25923, 24 h
Description: Antibacterial activity against methicillin- resistant Staphylococcus aureus ATCC 25923 after 24 hrs by spectrophotometry

Structure (SMILES)	MIC (Klebsiella pneumoniae) [µg/mL]	MIC (Staphylococcus aureus [1]) [µg/mL]	MIC (Staphylococcus aureus [2]) [µg/mL]
CCn1cc(C(=O)O)c(=O)c2cc(F)c(N3CCN(Cc4ccccc4)CC3)c(F)c21	0.011 (≈ 0.0257 µM)	0.19 (≈ 0.444 µM)	0.19 (≈ 0.444 µM)
CCn1cc(C(=O)O)c(=O)c2cc(F)c(N3CCN(c4ccccc4)CC3)c(F)c21	0.09 (≈ 0.218 µM)	0.09 (≈ 0.218 µM)	0.39 (≈ 0.943 µM)
CCn1cc(C(=O)O)c(=O)c2cc(F)c(N3CCOCC3)c(F)c21	0.022 (≈ 0.065 µM)	0.045 (≈ 0.133 µM)	0.022 (≈ 0.065 µM)
CCn1cc(C(=O)O)c(=O)c2cc(F)c(N3CCCCC3)c(F)c21	0.19 (≈ 0.565 µM)	0.39 (≈ 1.16 µM)	0.19 (≈ 0.565 µM)
CCN1CCN(c2c(F)cc3c(=O)c(C(=O)O)cn(CC)c3c2F)CC1	0.19 (≈ 0.52 µM)	0.39 (≈ 1.07 µM)	0.78 (≈ 2.13 µM)
CCn1cc(C(=O)O)c(=O)c2cc(F)c(NCCN3CCOCC3)c(F)c21	1.56 (≈ 4.09 µM)		3.12 (≈ 8.18 µM)
CCn1cc(C(=O)O)c(=O)c2cc(F)c(NCCCN3CCOCC3)c(F)c21	1.56 (≈ 3.95 µM)		3.12 (≈ 7.89 µM)
CCCCNc1c(F)cc2c(=O)c(C(=O)O)cn(CC)c2c1F	0.022 (≈ 0.0678 µM)	0.39 (≈ 1.2 µM)	0.39 (≈ 1.2 µM)
CCn1cc(C(=O)O)c(=O)c2cc(F)c(NC(C)(C)C)c(F)c21	0.09 (≈ 0.277 µM)		12.5 (≈ 38.5 µM)
CCCNc1c(F)cc2c(=O)c(C(=O)O)cn(CC)c2c1F	0.78 (≈ 2.51 µM)		12.5 (≈ 40.3 µM)
CCn1cc(C(=O)O)c(=O)c2cc(F)c(NC(C)C)c(F)c21	0.09 (≈ 0.29 µM)	0.78 (≈ 2.51 µM)	0.78 (≈ 2.51 µM)
O=C(O)c1cn(Cc2ccc(C(F)(F)F)cc2)c2c(F)c(N3CCOCC3)c(F)cc2c1=O	12.5 (≈ 26.7 µM)		12.5 (≈ 26.7 µM)
O=C(O)c1cn(Cc2ccc(C(F)(F)F)cc2)c2c(F)c(N3CCCCC3)c(F)cc2c1=O	12.5 (≈ 26.8 µM)		> 50
O=C(O)c1cn(Cc2ccc(C(F)(F)F)cc2)c2c(F)c(N3CCNCC3)c(F)cc2c1=O	12.5 (≈ 26.7 µM)		> 50
CN1CCN(c2c(F)cc3c(=O)c(C(=O)O)cn(Cc4ccc(C(F)(F)F)cc4)c3c2F)CC1	> 50		> 50
CCN1CCN(c2c(F)cc3c(=O)c(C(=O)O)cn(Cc4ccc(C(F)(F)F)cc4)c3c2F)CC1	> 50		> 50
O=C(O)c1cn(Cc2ccc(C(F)(F)F)cc2)c2c(F)c(N3CCN(c4ccccc4)CC3)c(F)cc2c1=O	0.39 (≈ 0.718 µM)	1.56 (≈ 2.87 µM)	0.78 (≈ 1.44 µM)
O=C(O)c1cn(Cc2ccc(C(F)(F)F)cc2)c2c(F)c(N3CCN(Cc4ccccc4)CC3)c(F)cc2c1=O	1.56 (≈ 2.8 µM)		1.56 (≈ 2.8 µM)
O=C(O)c1cn(Cc2ccc(C(F)(F)F)cc2)c2c(F)c(NCCN3CCOCC3)c(F)cc2c1=O	12.5 (≈ 24.4 µM)		> 50
O=C(O)c1cn(Cc2ccc(C(F)(F)F)cc2)c2c(F)c(NCCCN3CCOCC3)c(F)cc2c1=O	25 (≈ 47.6 µM)		> 50
CCCCNc1c(F)cc2c(=O)c(C(=O)O)cn(Cc3ccc(C(F)(F)F)cc3)c2c1F	> 50		> 50
CC(C)(C)Nc1c(F)cc2c(=O)c(C(=O)O)cn(Cc3ccc(C(F)(F)F)cc3)c2c1F	> 50		> 50
CCCNc1c(F)cc2c(=O)c(C(=O)O)cn(Cc3ccc(C(F)(F)F)cc3)c2c1F	3.12 (≈ 7.08 µM)		1.56 (≈ 3.54 µM)
CC(C)Nc1c(F)cc2c(=O)c(C(=O)O)cn(Cc3ccc(C(F)(F)F)cc3)c2c1F	1.56 (≈ 3.54 µM)		3.12 (≈ 7.08 µM)

Structure (SMILES)	MIC (Klebsiella pneumoniae) [µg/mL]	MIC (Staphylococcus aureus [1]) [µg/mL]	MIC (Staphylococcus aureus [2]) [µg/mL]
CCn1cc(C(=O)O)c(=O)c2cc(F)c(N3CCN(c4nc(N5CCOCC5)nc(N5CCOCC5)n4)CC3)c(F)c21	3.12 (≈ 5.32 µM)		3.12 (≈ 5.32 µM)
CCn1cc(C(=O)O)c(=O)c2cc(F)c(N3CCN(c4nc(N5CCCCC5)nc(N5CCCCC5)n4)CC3)c(F)c21	> 50		> 50
CCn1cc(C(=O)O)c(=O)c2cc(F)c(N3CCN(c4nc(N5CCN(C)CC5)nc(N5CCN(C)CC5)n4)CC3)cc21	0.39 (≈ 0.656 µM)	0.39 (≈ 0.656 µM)	0.39 (≈ 0.656 µM)
CCn1cc(C(=O)O)c(=O)c2cc(F)c(N3CCN(c4nc(NCCCN5CCOCC5)nc(NCCCN5CCOCC5)n4)CC3)c(F)c21	12.5 (≈ 17.8 µM)		12.5 (≈ 17.8 µM)
CCCCNc1nc(NCCCC)nc(N2CCN(c3c(F)cc4c(=O)c(C(=O)O)cn(CC)c4c3F)CC2)n1	0.39 (≈ 0.698 µM)	0.39 (≈ 0.698 µM)	0.39 (≈ 0.698 µM)
CCn1cc(C(=O)O)c(=O)c2cc(F)c(N3CCN(c4nc(NC(C)(C)C)nc(NC(C)(C)C)n4)CC3)c(F)c21	0.39 (≈ 0.698 µM)		3.12 (≈ 5.59 µM)
CCCNc1nc(NCCC)nc(N2CCN(c3c(F)cc4c(=O)c(C(=O)O)cn(CC)c4c3F)CC2)n1	0.19 (≈ 0.358 µM)	0.78 (≈ 1.47 µM)	0.78 (≈ 1.47 µM)
O=C(O)c1cn(Cc2ccc(C(F)(F)F)cc2)c2c(F)c(N3CCN(c4nc(N5CCCCC5)nc(N5CCCCC5)n4)CC3)c(F)cc2c1=O	50 (≈ 70.2 µM)		50 (≈ 70.2 µM)
CN1CCN(c2nc(N3CCN(C)CC3)nc(N3CCN(c4cc5c(cc4F)c(=O)c(C(=O)O)cn5Cc4ccc(C(F)(F)F)cc4)CC3)n2)CC1	12.5 (≈ 17.2 µM)		25 (≈ 34.5 µM)
O=C(O)c1cn(Cc2ccc(C(F)(F)F)cc2)c2c(F)c(N3CCN(c4nc(NCCN5CCOCC5)nc(NCCN5CCOCC5)n4)CC3)c(F)cc2c1=O	6.25 (≈ 7.79 µM)		12.5 (≈ 15.6 µM)
O=C(O)c1cn(Cc2ccc(C(F)(F)F)cc2)c2c(F)c(N3CCN(c4nc(NCCCN5CCOCC5)nc(NCCCN5CCOCC5)n4)CC3)c(F)cc2c1=O	50 (≈ 60.2 µM)		> 50
CCn1cc(C(=O)O)c(=O)c2cc(F)c(N3CCN(c4cc(C)nc(N5CCOCC5)n4)CC3)c(F)c21	0.045 (≈ 0.0875 µM)	0.045 (≈ 0.0875 µM)	0.39 (≈ 0.758 µM)
CCn1cc(C(=O)O)c(=O)c2cc(F)c(N3CCN(c4cc(C)nc(N5CCCCC5)n4)CC3)c(F)c21	0.045 (≈ 0.0878 µM)	0.39 (≈ 0.761 µM)	0.39 (≈ 0.761 µM)
CCn1cc(C(=O)O)c(=O)c2cc(F)c(N3CCN(c4cc(C)nc(N5CCN(C)CC5)n4)CC3)cc21	> 50		> 50
CCn1cc(C(=O)O)c(=O)c2cc(F)c(N3CCN(c4cc(C)nc(NCCN5CCOCC5)n4)CC3)c(F)c21	0.22 (≈ 0.395 µM)	0.19 (≈ 0.341 µM)	0.22 (≈ 0.395 µM)
CCn1cc(C(=O)O)c(=O)c2cc(F)c(N3CCN(c4cc(C)nc(NCCCN5CCOCC5)n4)CC3)c(F)c21	0.22 (≈ 0.385 µM)	0.19 (≈ 0.332 µM)	0.22 (≈ 0.385 µM)
CCCNc1nc(C)cc(N2CCN(c3c(F)cc4c(=O)c(C(=O)O)cn(CC)c4c3F)CC2)n1	0.09 (≈ 0.185 µM)	0.39 (≈ 0.802 µM)	0.39 (≈ 0.802 µM)
CCn1cc(C(=O)O)c(=O)c2cc(F)c(N3CCN(c4cc(C)nc(NC(C)C)n4)CC3)c(F)c21	0.011 (≈ 0.0226 µM)	0.19 (≈ 0.391 µM)	0.22 (≈ 0.452 µM)
Cc1cc(N2CCN(c3c(F)cc4c(=O)c(C(=O)O)cn(Cc5ccc(C(F)(F)F)cc5)c4c3F)CC2)nc(NCCCN2CCOCC2)n1	6.25 (≈ 8.91 µM)		25 (≈ 35.6 µM)
Cc1cc(N2CCN(c3c(F)cc4c(=O)c(C(=O)O)cn(Cc5ccc(C(F)(F)F)cc5)c4c3F)CC2)nc(NC(C)(C)C)n1	0.19 (≈ 0.301 µM)	1.56 (≈ 2.47 µM)	1.56 (≈ 2.47 µM)
Cc1cc(N2CCN(c3c(F)cc4c(=O)c(C(=O)O)cn(Cc5ccc(C(F)(F)F)cc5)c4c3F)CC2)nc(NC(C)C)n1	0.19 (≈ 0.308 µM)	0.78 (≈ 1.27 µM)	0.78 (≈ 1.27 µM)
CCn1cc(C(=O)O)c(=O)c2cc(F)c(N3CCNCC3)c(F)c21	0.045 (≈ 0.133 µM)	0.39 (≈ 1.16 µM)	0.78 (≈ 2.31 µM)
CCn1cc(C(=O)O)c(=O)c2cc(F)c(N3CCN(C)CC3)c(F)c21	0.011 (≈ 0.0313 µM)	0.19 (≈ 0.541 µM)	0.19 (≈ 0.541 µM)
